Literature values in the CATMoS acute toxicity set (Mansouri et al. 2021).
Several values for one entry are separate records, joined by “and”; a condition that tells them apart may be missing. Identical values can stand only once.

Test: rat acute oral toxicity
Conditions: in vivo

First: CC[C@H]1C2C[C@H]3[C@@H]4N(C)c5ccccc5C45C[C@@H](C2[C@H]5O)N3[C@@H]1O (some centres undefined)
Second: CCOc1ccccc1N1CCN(CCC=Cc2ccc3c(c2)CCC(=O)N3)CC1
The LD50 of the first is 1.7-fold lower: 290 mg/kg for the first, 500 mg/kg for the second.

First: CCC(C)(C)N/C(N)=N/C#N
Second: CCC(C)C(CC)C(N)=O (centres undefined)
The LD50 of the first is 2.5-fold lower: 300 mg/kg for the first, 760 mg/kg for the second.

First: COP(=S)(OC)SCSCCOC(N)=O
Second: COc1coc(CSP(=O)(OC)OC)cc1=O
The LD50 of the first is 1.9-fold higher: 44 mg/kg for the first, 23 mg/kg for the second.

First: CC(C)(C(=O)O)S(C)(=O)=O
Second: CC(=O)O
The LD50 of the first is 1.8-fold higher: 5700 mg/kg for the first, 3250 mg/kg for the second.

First: CC(Cl)(C=O)CCl (centres undefined)
Second: CC(Br)(CCl)CBr (centres undefined)
The LD50 of the first is 2.1-fold higher: 1620 mg/kg for the first, 780 mg/kg for the second.

Compared with `O=NN1CCNCC1`, `c1ccc(N2CCNCC2)cc1` is 11-fold lower in LD50: 2260 mg/kg for the first, 210 mg/kg for the second.

Going from `N#CC(F)(F)C(F)(F)C(F)(F)C(F)(F)C#N` to `Cc1c(Cl)c(Br)cc2[nH]c(C(F)(F)F)nc12`, the LD50 falls from 2920 mg/kg to 30 mg/kg (97-fold).

Going from `O=S(=O)(c1ccccc1)c1ccc(Cl)cc1` to `Fc1ccc(SCc2ccc(Cl)cc2)cc1`, the LD50 rises from 1400 mg/kg to 3000 mg/kg (2.1-fold).

Going from `Clc1cccc(N2CCNCC2)n1` to `COc1ccc(CN2CCNCC2)c(OC)c1OC`, the LD50 rises from 174 mg/kg to 1700 mg/kg (9.8-fold).

Compared with `O=c1ccn(C2OC(COP(=O)(O)O)C(O)C2O)c(=O)[nH]1` (centres undefined), `CC[C@@]1(O)C[C@H](O[C@H]2C[C@H](N(C)C)[C@H](O[C@H]3C[C@H](O)[C@H](O[C@H]4CCC(=O)[C@H](C)O4)[C@H](C)O3)[C@H](C)O2)c2c(cc3c(c2O)C(=O)c2c(O)cccc2C3=O)[C@H]1C(=O)OC` is 200-fold lower in LD50: 12000 mg/kg for the first, 58.6 mg/kg for the second.

Going from `CN(CCO)CC(O)Cn1cnc2c1c(=O)n(C)c(=O)n2C` (centres undefined) to `CCCOC(=O)c1ccc(C(=O)OCCC)nc1`, the LD50 falls from 14100 mg/kg to 5230 mg/kg (2.7-fold).

`Cn1c([N+](=O)[O-])cnc1COC(N)=O` and `CC(=O)c1ccccn1` are within 1.5-fold of each other in LD50: 3400 mg/kg for the first, 2280 mg/kg for the second.

Going from `Cc1cccc(CN(C)N=O)c1` to `Cc1cccc(I)c1`, the LD50 rises from 600 mg/kg to 2300 mg/kg (3.8-fold).

`CCCCCC#CC(=O)OC` and `CCCCCN(CCCCC)N=O` are within 1.5-fold of each other in LD50: 1530 mg/kg for the first, 1750 mg/kg for the second.

`COc1cc2c(cc1OC)C(CCc1ccc(Cl)cc1)N(C)CC2` (centres undefined) and `COc1cc2c(cc1OC)-c1c(OC)c(OC)cc3c1C(C2)N(C)CC3` (centres undefined) are within 1.5-fold of each other in LD50: 400 mg/kg for the first, 545 mg/kg for the second.

Going from `N#CSc1ccc(N)cc1` to `N#Cc1ccc([N+](=O)[O-])cc1`, the LD50 falls from 240 mg/kg to 30 mg/kg (8-fold).

First: O=C(CCC1CCN(Cc2ccccc2)CC1)c1ccc2c(c1)NCCCC2
Second: Oc1ccc(-c2ccccc2)cc1CN1CCCCC1
The LD50 of the first is 11-fold higher: 334 mg/kg for the first, 30 mg/kg for the second.

First: CCC(=O)O[C@H]1[C@H](O[C@@H]2[C@@H](C)[C@H](O[C@H]3C[C@@](C)(OC)[C@@H](O)[C@H](C)O3)[C@@H](C)C(=O)O[C@H](CC)[C@@](C)(O)[C@H](O)[C@@H](C)C(=O)[C@H](C)C[C@@]2(C)O)O[C@H](C)C[C@@H]1N(C)C
Second: Cc1c(F)c(N2CCNC(C)C2)cc2c1c(=O)c(C(=O)O)cn2C1CC1 (centres undefined)
The LD50 of the first is 2.1-fold lower: 1450 mg/kg for the first, 3030 mg/kg for the second.

Compared with `CN(N=O)c1cccnc1`, `CCN(CC)c1cccc(OC(=O)NC)c1` is 9.1-fold higher in LD50: 10 mg/kg for the first, 91 mg/kg for the second.

Compared with `NC1CCC(CC2CCC(N)CC2)CC1` (centres undefined), `Brc1ccc2[nH]cc(CC3CCNCC3)c2c1` is 70-fold lower in LD50: 1750 mg/kg for the first, 25 mg/kg for the second.

First: C=C(C#N)OC(C)=O
Second: CCOC(=O)CS
The LD50 of the first is 1.8-fold lower: 100 mg/kg for the first, 178 mg/kg for the second.

Compared with `O=NN(CCCl)C(=O)NCCCl`, `CNS(=O)(=O)CCNC(=O)N(CCCl)N=O` is 2-fold higher in LD50: 20 mg/kg for the first, 40 mg/kg for the second.

Compared with `CCN(CC)CCN`, `CCN(C)N=O` is 31-fold lower in LD50: 2830 mg/kg for the first, 90 mg/kg for the second.

`CCCCCCCN1C(C)=CSC1=Cc1scc(C)[n+]1CCCCCCC` and `Cc1cccc(N2CCN(CCCCN3C(=O)CNC3=O)CC2)c1` are within 1.5-fold of each other in LD50: 460 mg/kg for the first, 383 mg/kg for the second.

First: COP(=O)(OC)SC(C)C
Second: COC(C)CC(OC)OC (centres undefined)
The LD50 of the first is 14-fold lower: 108 mg/kg for the first, 1480 mg/kg for the second.

Compared with `CN(N=O)C1CCS(=O)(=O)C1` (centres undefined), `CC1=CCC(=C(C)C)CC1` is 5.9-fold higher in LD50: 750 mg/kg for the first, 4390 mg/kg for the second.

Going from `COP(=S)(Oc1ccc([N+](=O)[O-])cc1)Oc1ccc([N+](=O)[O-])cc1` to `NC(=S)Nc1ccc(-c2ccc(NC(N)=S)cc2)cc1`, the LD50 falls from 312 mg/kg to 200 mg/kg (1.6-fold).

First: Cc1cc(=O)oc2cc(O)ccc12
Second: Cc1ccc(C=O)o1
The LD50 of the first is 1.8-fold higher: 3850 mg/kg for the first, 2200 mg/kg for the second.

Compared with `CC(=O)SCC[N+](C)(C)C`, `CCOc1ccc(NC(=O)CC(C)=O)cc1` is 1.8-fold higher in LD50: 100 mg/kg for the first, 176 mg/kg for the second.

Going from `O=C(c1ccc2ccccc2n1)N1CCN=C1Nc1c(Cl)cccc1Cl` to `O=C(O)c1c(Cl)ccc2cc(Cl)cnc12`, the LD50 rises from 44 mg/kg to 2190 mg/kg (50-fold).

Compared with `CCN1CN1CC` (centres undefined), `CC(C)CS` is 1.8-fold higher in LD50: 4000 mg/kg for the first, 7170 mg/kg for the second.

Going from `CN1C(=O)OC(C)(C)C1=O` to `CNC(=O)Oc1ccc(C)c(C)c1C`, the LD50 falls from 2140 mg/kg to 318 mg/kg (6.7-fold).

First: Cc1c(Cl)c(Br)c(Cl)c2[nH]c(C(F)(F)F)nc12
Second: CCOP(=O)(Oc1ccc(Cl)cc1Cl)Oc1ccc(Cl)cc1Cl
The LD50 of the first is 340-fold lower: 18.3 mg/kg for the first, 6200 mg/kg for the second.

Compared with `O=S(=O)(O)c1ccc2cc(Nc3cccc4c(O)c(S(=O)(=O)O)ccc34)ccc2c1O`, `O=c1n(CCCN2CCN(c3cccc(Cl)c3)CC2)nc2ccccn12` is 16-fold lower in LD50: 11000 mg/kg for the first, 690 mg/kg for the second.

Going from `Cc1cccc(C(C)C)c1` to `COc1ccc2c(c1)c1c3n2CCN(C)C3=NCC1`, the LD50 falls from 2970 mg/kg to 1400 mg/kg (2.1-fold).

For `NNC(=O)CSc1cc(Oc2ccc(Cl)cc2)ncn1`, the LD50 is listed as 800 mg/kg.

In the case of `CN(C)C(CSC(N)=O)CSC(N)=O`, the LD50 is given as 250 mg/kg and 225 mg/kg.
In the case of `CC(=Nc1c(I)cc(I)c(C(=O)NCC(C)C(=O)O)c1I)N1CCOCC1` (centres undefined), the LD50 is given as 15000 mg/kg and 7000 mg/kg.
In the case of `CCn1c2ccccc2c2cc(N)ccc21`, the LD50 is given as 144 mg/kg and 234 mg/kg.
